Values joined by “and” are separate entries in the source; they are usually repeats but may differ in a detail not shown here. Equal entries are not always repeated.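 Cultured in 96-well plates, cells were exposed to test compound for 48 hours across five concentrations. Abbreviation: GI50, concentration required for 50% inhibition of growth. TGI: total growth inhibition.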 *1 amine or outer side, *2 acyl side, *3 side chain or, on linkers, in order; H or OH if unused. Where a SMILES comes first, the peptide text is derived from it. CO = O=C([*:1])[*:2]
Experiments:
Assay in all cases: inhibition of tumour cell growth, NCI panel, 48 h
HOP-62 NSCLC = test system: HOP-62 NSCLC
NCI-H522 lung = test system: NCI-H522 lung
UACC-257 melanoma = test system: UACC-257 melanoma
TK-10 renal = test system: TK-10 renal
CAKI-1 renal = test system: CAKI-1 renal
DU-145 prostate = test system: DU-145 prostate
SK-MEL-28 melanoma = test system: SK-MEL-28 melanoma
EKVX NSCLC = test system: EKVX NSCLC
HS 578T breast = test system: HS 578T breast
IGROV1 ovarian = test system: IGROV1 ovarian

Compound | GI50 (HOP-62 NSCLC) [µM] | TGI (HOP-62 NSCLC) | GI50 (NCI-H522 lung) [µM] | TGI (NCI-H522 lung) | GI50 (UACC-257 melanoma) [µM] | TGI (UACC-257 melanoma) | GI50 (TK-10 renal) [µM] | TGI (TK-10 renal) | GI50 (CAKI-1 renal) [µM] | TGI (CAKI-1 renal) | GI50 (DU-145 prostate) [µM] | TGI (DU-145 prostate) | GI50 (SK-MEL-28 melanoma) [µM] | TGI (SK-MEL-28 melanoma) | GI50 (EKVX NSCLC) [µM] | TGI (EKVX NSCLC) | GI50 (HS 578T breast) [µM] | TGI (HS 578T breast) | GI50 (IGROV1 ovarian) [µM] | TGI (IGROV1 ovarian)
CNC(=O)c1ccc(Nc2nc(OC3CCCC3)c3c(-c4ccc5nc(C)oc5c4)c[nH]c3n2)c(OC)c1 | > 100 | > 100 µM | 1.67 | > 100 µM | > 100 | > 100 µM | > 68.7 | > 100 µM | 0.448 | > 100 µM | 6.31 | > 100 µM | 41.4 | > 100 µM | > 100 | > 100 µM | 31.5 | > 100 µM | 0.448 | > 100 µM
CC(=O)O[C@H]1C(=O)[C@@]2(C)[C@H]([C@H](OC(=O)c3ccccc3)[C@]3(O)C[C@H](OC(=O)[C@H](OC(=O)CCC(=O)OC4CCC(S/N=C(N)/N=C(\N)N(C)C)CC4)[C@@H](NC(=O)c4ccccc4)c4ccccc4)C(C)=C1C3(C)C)[C@]1(OC(C)=O)CO[C@@H]1C[C@@H]2O (stereo partly drawn) | 0.0133 | > 50 µM | 0.00553 | 0.0373 µM | 0.0846 | > 50 µM | 0.0205 | 1.65 µM | 1.27 | > 50 µM | 0.0135 | > 50 µM | 8.57 | > 50 µM | 0.0269 | > 50 µM | 0.01 | – | 0.113 | > 50 µM
c1cncc(-c2cc(-c3cc(-c4cccnc4)n[nH]3)[nH]n2)c1 | – | > 100 µM | – | > 100 µM | – | > 100 µM | – | > 100 µM | – | > 100 µM | – | > 100 µM | – | > 100 µM | – | > 100 µM | – | > 100 µM | – | > 100 µM
N#Cc1c(SCc2ccccc2)nc2[nH]c(=S)[nH]c(=S)c2c1-c1ccco1 | 58.4 | > 100 µM | > 100 | > 100 µM | 66.5 | > 100 µM | 15.2 | 72.1 µM | 42.9 | > 100 µM | 54 | > 100 µM | > 100 | > 100 µM | 17 | > 100 µM | 70.6 | > 100 µM | > 100 | > 100 µM
CCOC(=O)c1ccc2[nH]c(Cc3[nH]c4ccc(C(=O)OCC)cc4c3C)c(C)c2c1 | 2.58 | 14.7 µM | 3.27 | 19.2 µM | 9.4 | 46.1 µM | 4.28 | 17.4 µM | 1.55 | 22.9 µM | 3.37 | 17.5 µM | 5.26 | 22.8 µM | 5.09 | 26.4 µM | 3.29 | 23.1 µM | 2.35 | 17 µM
OCC1OC(O)C(N=Cc2ccc3c(c2)OCO3)C(O)C1O (stereo not drawn) | – | > 100 µM | – | > 100 µM | – | > 100 µM | – | > 100 µM | – | > 100 µM | – | > 100 µM | – | > 100 µM | – | > 100 µM | – | > 100 µM | – | > 100 µM
C[C@]12CC[C@H]3[C@@H](CC=C4C[C@@H](O)CC[C@@]43C)[C@@H]1C/C(=C\c1cccc(OCCCn3ccnc3)c1)[C@@H]2O | 15.1 | 32.7 µM | 14.6 | 27.7 µM | 13.1 | 29.2 µM | 16.6 | 31.3 µM | 13.8 | 34.5 µM | 14.2 | 28.3 µM | 12.2 | 29.1 µM | 13.5 | 33.9 µM | 5.16 | 23.4 µM | 16.8 | 33.6 µM
CC(C)C(NC(=O)C(CCCN=C(N)N)NC(=O)NC(Cc1ccccc1)C(=O)O)C(=O)NC(C=O)CCCN=C(N)N (stereo not drawn) ({Phe-CO}-Arg-Val-Arg-aldehyde; configuration not given here) | > 5 | > 5 µM | > 5 | > 5 µM | > 5 | > 5 µM | > 5 | > 5 µM | > 5 | > 5 µM | > 5 | > 5 µM | > 5 | > 5 µM | > 5 | > 5 µM | > 5 | > 5 µM | > 5 | > 5 µM
COc1ccc2c(c1)C(=O)c1c-2c(N2CCN(C(=O)CN(C)C)CC2)nc2ccccc12 | 13.6 | 29.2 µM | 13.7 | 30.6 µM | 12.1 | 30.3 µM | 14.1 | 37.6 µM | 47.9 | > 100 µM | 14.8 | 35.2 µM | 1.29 | 3.16 µM | 17.7 | 41.5 µM | 11.6 | 31.9 µM | 10 | 26.4 µM
CCOC(=O)c1ccc(C(O)CC(=O)OC(C)(C)C)[nH]1 (stereo not drawn) | 45.1 | > 100 µM | 9.5 | 25.9 µM | 40.8 | > 100 µM | 58.4 | > 100 µM | 21.6 | 87.2 µM | 59.7 | > 100 µM | 35.7 | > 100 µM | 22.7 | 49.6 µM | 48.3 | > 100 µM | 12.4 | 30.4 µM
COc1cc(/C=C2\C[C@H]3[C@@H]4CC=C5C[C@@H](OC(C)=O)CC[C@]5(C)[C@H]4CC[C@]3(C)[C@H]2OC(C)=O)ccc1OCCCn1ccnc1 | 11.3 | 19.5 µM | 12.8 | > 36.3 µM | 8.43 | 17.3 µM | 3.73 | 13.3 µM | 7.05 | 15.8 µM | 9.14 | 18.7 µM | 15.9 | > 50 µM | 9.49 | 20 µM | 5.85 | 16.5 µM | 16.8 | > 50 µM
CC(=O)NC(Cc1c[nH]c2ccccc12)C(=O)O (stereo not drawn) | – | > 100 µM | – | > 100 µM | – | > 100 µM | – | > 100 µM | – | > 100 µM | – | > 100 µM | – | > 100 µM | – | > 100 µM | – | > 100 µM | – | > 100 µM
CN(C)c1ccc2[nH]c(O)c(C=Nc3ccc(S(N)(=O)=O)cc3)c2c1 | > 25 | > 25 µM | > 25 | > 25 µM | > 25 | > 25 µM | > 25 | > 25 µM | > 25 | > 25 µM | > 25 | > 25 µM | > 25 | > 25 µM | > 25 | > 25 µM | > 25 | > 25 µM | > 25 | > 25 µM
O=C1OC2(c3ccccc31)c1cc(I)c(O)c(I)c1Oc1c2cc(I)c(O)c1I | – | > 100 µM | – | 78.5 µM | – | > 100 µM | – | > 100 µM | – | 85 µM | – | > 100 µM | – | > 100 µM | – | > 100 µM | – | > 100 µM | – | > 100 µM
CCSc1nc(=S)[nH]c2[nH]ncc12 | > 100 | > 100 µM | 46.1 | > 100 µM | > 100 | > 100 µM | 88.9 | > 100 µM | 50.8 | > 100 µM | > 100 | > 100 µM | > 100 | > 100 µM | 54.1 | > 100 µM | 26 | 60.8 µM | 70.3 | > 100 µM
Cc1cc(-c2cc(C)c(O)c(C(C)(C)C)c2)cc(C(C)(C)C)c1O | – | 34.5 µM and 31 µM | – | 22.5 µM and 28.2 µM | – | 24.1 µM and 24.7 µM | – | 24.5 µM and 23.2 µM | – | 22.7 µM and 27.7 µM | – | 25.7 µM and 28.5 µM | – | 24.5 µM and 34.2 µM | – | 22.7 µM and 28.4 µM | – | 27.1 µM and 32.7 µM | – | 41.6 µM and 24.3 µM
O=[N+]([O-])c1ccccc1/C=C/C=C1c2ccccc2-c2ccccc21 | > 100 | > 100 µM | > 100 | > 100 µM | > 100 | > 100 µM | > 100 | > 100 µM | > 100 | > 100 µM | > 100 | > 100 µM | > 100 | > 100 µM | > 100 | > 100 µM | > 100 | > 100 µM | > 100 | > 100 µM
O=C(CSc1nc2sc3c(c2c(=O)n1-c1ccccc1)CCCCC3)N/N=C/c1ccc(F)cc1 | 2.38 | 7.39 µM | 6.77 | 33 µM | 7.54 | > 100 µM | 1.6 | 4.16 µM | 3.18 | 13.5 µM | 1.24 | 4.3 µM | 3.24 | 13.1 µM | 11.3 | 41.7 µM | 1.01 | 4.96 µM | 3.32 | 19.2 µM
CCC[C@H](Nc1nc(-c2ccc(NC(=O)NCC)c(OC)c2)ncc1C)c1cccnc1 | 0.0638 | 39.7 µM | 0.0345 | 0.868 µM | 0.82 | 28.8 µM | 14.3 | 55.1 µM | 0.222 | 24 µM | 0.028 | 0.0753 µM | 1.14 | > 61.6 µM | 0.0621 | > 100 µM | 0.0345 | – | 0.0566 | 24.6 µM

Source: PubChem BioAssay (NCI)
